Data on 15 compounds can be found in patent US20090054392A1, “NAPHTHYLPYRIMIDINE, NAPHTHYLPYRAZINE AND NAPHTHYLPYRIDAZINE ANALOGS AND THEIR USE AS AGONISTS OF THE WNT-BETA-CATENIN CELLULAR MESSAGING SYSTEM” (Wyeth, priority 2007, published 2009).

This data set deals with Dkk1-LRP5-TCF-Luciferase. The data set is described as follows: Functional Dkk1-LRP5-TCF-Luciferase Assay in U2OS Cells. To be noted: for fold induction at 2 µM / EC50 / fold induction at 20 µM: Homo sapiens, U2OS; for fold induction at 2 µM: read-out: B = TCF ACTIVITY/DMSO CONTROL Fold induction @ 2.0 uM, 2.0 uM compound; for fold induction at 20 µM: read-out: C = TCF ACTIVITY/DMSO CONTROL Fold induction @ 20.0 uM, 20.0 uM compound; for A = MAX FOLD Induction/DMSO CONTROL: maximum fold induction over DMSO control.

For the compound `c1ccc2cc(-c3ccnc(N4CCCCCC4)n3)ccc2c1` [1-[4-(2-naphthyl)pyrimidin-2-yl]azepane], the fold induction at 2 µM was determined as 1.54.
Regarding `COC(=O)C(N)C1CCN(c2nccc(-c3ccc4ccccc4c3)n2)CC1` (stereo not drawn) [methyl amino{1-[4-(2-naphthyl)pyrimidin-2-yl]piperidin-4-yl}acetate], the EC50 – broadly, the midpoint of the concentration-response curve – was found to be 3.3 µM; the fold induction at 20 µM is 0.03; the “A = MAX FOLD Induction/DMSO CONTROL” value is 2.360 fold.
As to `Cc1ccc(S(=O)(=O)N2CCC(N(C)c3nccc(-c4ccc5ccccc5c4)n3)CC2)cc1` [N-methyl-N-{1-[(4-methylphenyl)sulfonyl]piperidin-4-yl}-4-(2-naphthyl)pyrimidin-2-amine], the fold induction at 2 µM was 1.65.
For the compound `O=C(NCC1CCN(c2nccc(-c3ccc4ccccc4c3)n2)CC1)N1CCCC1` [N-({1-[4-(2-naphthyl)pyrimidin-2-yl]piperidin-4-yl}methyl)pyrrolidine-1-carboxamide], the fold induction at 2 µM stood at 0.91 and the fold induction at 20 µM was 1.13.
For `OCC1CCN([C@H]2CCN(c3nccc(-c4ccc5ccccc5c4)n3)C2)CC1` [(1-{(3S)-1-[4-(2-naphthyl)pyrimidin-2-yl]pyrrolidin-3-yl}piperidin-4-yl)methanol] the same measures were 1.72 and 0.94.
With `CN(CCN(C)[C@@H]1CCN(c2nccc(-c3ccc4ccccc4c3)n2)C1)C(=O)C(F)(F)F` [2,2,2-trifluoro-N-methyl-N-[2-(methyl{(3R)-1-[4-(2-naphthyl)pyrimidin-2-yl]pyrrolidin-3-yl}amino)ethyl]acetamide], the fold induction at 2 µM turned out to be 1.5.
On to `Cc1ccc(S(=O)(=O)N2CCCN(c3nccc(-c4ccc5ccccc5c4)n3)CC2)cc1` [1-[(4-methylphenyl)sulfonyl]-4-[4-(2-naphthyl)pyrimidin-2-yl]-1,4-diazepane], for which the fold induction at 2 µM is 1.76.
Turning to `O=C(NCCC1CCN(c2nccc(-c3ccc4ccccc4c3)n2)CC1)c1ccccc1` [N-(2-{1-[4-(2-naphthyl)pyrimidin-2-yl]piperidin-4-yl}ethyl)benzamide], the fold induction at 2 µM worked out at 0.91 and the fold induction at 20 µM worked out at 1.95.
For the compound `COC(=O)N1CCCN(c2nccc(-c3ccc4ccccc4c3)n2)CC1` [methyl 4-[4-(2-naphthyl)pyrimidin-2-yl]-1,4-diazepane-1-carboxylate], a half-maximal effect (EC50) was put at 30 µM, the fold induction at 20 µM was determined as 1.88 and the “A = MAX FOLD Induction/DMSO CONTROL” value came to 1.930 fold.
For the compound `O[C@@H]1CCN(CC2CCN(c3nccc(-c4ccc5ccccc5c4)n3)C2)C1` (stereo partly drawn) [(3R)-1-({1-[4-(2-naphthyl)pyrimidin-2-yl]pyrrolidin-3-yl}methyl)pyrrolidin-3-ol], the fold induction at 2 µM was determined as 1.2.
Regarding `O=C(O)C1CCN(c2nccc(-c3ccc4ccccc4c3)n2)CC1` [1-[4-(2-naphthyl)pyrimidin-2-yl]piperidine-4-carboxylic acid], the fold induction at 2 µM worked out at 1.78 and the fold induction at 20 µM came out at 0.57.
For `c1ccc2cc(-c3ccnc(N4CC[C@@H](N5CC6CCNC6C5)C4)n3)ccc2c1` (stereo partly drawn) [5-{(3R)-1-[4-(2-naphthyl)pyrimidin-2-yl]pyrrolidin-3-yl}octahydropyrrolo[3,4-b]pyrrole], the fold induction at 2 µM came out at 2.2.
For the compound `O=C(NCC1CCN(c2nccc(-c3ccc4ccccc4c3)n2)C1)c1ccccc1` (stereo not drawn) [N-({1-[4-(2-naphthyl)pyrimidin-2-yl]pyrrolidin-3-yl}methyl)benzamide], the fold induction at 2 µM worked out at 1.06 and the fold induction at 20 µM is 1.03.
Regarding `CN(C)C[C@@H]1CCN(c2nccc(-c3ccc4ccccc4c3)n2)C1` [N,N-dimethyl-1-{(3S)-1-[4-(2-naphthyl)pyrimidin-2-yl]pyrrolidin-3-yl}methanamine], the fold induction at 2 µM came to 2.26, the fold induction at 20 µM came out at 2.26 and the “A = MAX FOLD Induction/DMSO CONTROL” value was 3.620 fold.
Consider `O=C1CN(CC2CCN(c3nccc(-c4ccc5ccccc5c4)n3)C2)CCN1` (stereo not drawn) [4-({1-[4-(2-naphthyl)pyrimidin-2-yl]pyrrolidin-3-yl}methyl)piperazin-2-one], for which the fold induction at 2 µM was 1.23 and the fold induction at 20 µM worked out at 0.46.
